Results published in ChEMBL document CHEMBL1681693, “Synthesis and SAR of centrally active mGlu5 positive allosteric modulators based on an aryl acetylenic bicyclic lactam scaffold” (Bioorg Med Chem Lett, 2011).
Activity calls are given as the source filed them. No cut-off for these calls is given here.

Legend:
[1] = molecular target: T1, Metabotropic glutamate receptor 5 (Homo sapiens, UniProt P41594); assay: Positive allosteric modulation of mGlu5 receptor assessed as calcium mobilization at 30 uM relative to glutamate; format: functional
Target sequence in this assay (P41594 21-1212 limits assumed): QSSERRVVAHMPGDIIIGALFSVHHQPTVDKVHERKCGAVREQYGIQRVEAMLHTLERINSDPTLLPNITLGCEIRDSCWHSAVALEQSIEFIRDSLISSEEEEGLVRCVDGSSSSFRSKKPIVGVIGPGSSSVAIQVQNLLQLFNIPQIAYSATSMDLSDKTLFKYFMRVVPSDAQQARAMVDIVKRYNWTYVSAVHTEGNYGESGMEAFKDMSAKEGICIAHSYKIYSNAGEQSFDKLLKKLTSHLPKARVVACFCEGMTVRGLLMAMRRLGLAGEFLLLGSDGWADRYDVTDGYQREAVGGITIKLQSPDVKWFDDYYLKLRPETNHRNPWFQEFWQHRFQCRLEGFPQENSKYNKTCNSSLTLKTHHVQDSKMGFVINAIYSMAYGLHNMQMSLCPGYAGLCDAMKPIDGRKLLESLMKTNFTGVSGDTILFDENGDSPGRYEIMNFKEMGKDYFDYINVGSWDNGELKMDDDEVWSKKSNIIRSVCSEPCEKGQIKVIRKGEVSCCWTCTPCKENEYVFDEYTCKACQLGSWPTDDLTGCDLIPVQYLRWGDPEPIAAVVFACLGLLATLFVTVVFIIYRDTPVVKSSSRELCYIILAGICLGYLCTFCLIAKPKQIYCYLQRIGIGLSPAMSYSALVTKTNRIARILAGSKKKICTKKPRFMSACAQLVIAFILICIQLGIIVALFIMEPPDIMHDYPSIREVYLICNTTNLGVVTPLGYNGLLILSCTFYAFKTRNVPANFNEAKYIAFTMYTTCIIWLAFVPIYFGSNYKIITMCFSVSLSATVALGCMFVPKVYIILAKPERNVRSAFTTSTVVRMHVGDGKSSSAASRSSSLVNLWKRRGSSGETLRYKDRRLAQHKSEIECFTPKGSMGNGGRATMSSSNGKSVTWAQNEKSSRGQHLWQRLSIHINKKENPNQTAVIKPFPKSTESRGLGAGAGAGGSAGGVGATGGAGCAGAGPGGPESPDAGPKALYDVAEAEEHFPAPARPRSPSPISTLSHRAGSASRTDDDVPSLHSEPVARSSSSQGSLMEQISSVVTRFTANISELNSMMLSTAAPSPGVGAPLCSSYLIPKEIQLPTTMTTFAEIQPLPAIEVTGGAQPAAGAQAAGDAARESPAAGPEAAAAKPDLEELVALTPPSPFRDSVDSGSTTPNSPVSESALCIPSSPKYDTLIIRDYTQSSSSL

[2] = molecular target: T1, Metabotropic glutamate receptor 5; assay: Positive allosteric modulation of mGlu5 receptor assessed as calcium mobilization; format: functional
Target sequence in this assay (P41594 whole entry): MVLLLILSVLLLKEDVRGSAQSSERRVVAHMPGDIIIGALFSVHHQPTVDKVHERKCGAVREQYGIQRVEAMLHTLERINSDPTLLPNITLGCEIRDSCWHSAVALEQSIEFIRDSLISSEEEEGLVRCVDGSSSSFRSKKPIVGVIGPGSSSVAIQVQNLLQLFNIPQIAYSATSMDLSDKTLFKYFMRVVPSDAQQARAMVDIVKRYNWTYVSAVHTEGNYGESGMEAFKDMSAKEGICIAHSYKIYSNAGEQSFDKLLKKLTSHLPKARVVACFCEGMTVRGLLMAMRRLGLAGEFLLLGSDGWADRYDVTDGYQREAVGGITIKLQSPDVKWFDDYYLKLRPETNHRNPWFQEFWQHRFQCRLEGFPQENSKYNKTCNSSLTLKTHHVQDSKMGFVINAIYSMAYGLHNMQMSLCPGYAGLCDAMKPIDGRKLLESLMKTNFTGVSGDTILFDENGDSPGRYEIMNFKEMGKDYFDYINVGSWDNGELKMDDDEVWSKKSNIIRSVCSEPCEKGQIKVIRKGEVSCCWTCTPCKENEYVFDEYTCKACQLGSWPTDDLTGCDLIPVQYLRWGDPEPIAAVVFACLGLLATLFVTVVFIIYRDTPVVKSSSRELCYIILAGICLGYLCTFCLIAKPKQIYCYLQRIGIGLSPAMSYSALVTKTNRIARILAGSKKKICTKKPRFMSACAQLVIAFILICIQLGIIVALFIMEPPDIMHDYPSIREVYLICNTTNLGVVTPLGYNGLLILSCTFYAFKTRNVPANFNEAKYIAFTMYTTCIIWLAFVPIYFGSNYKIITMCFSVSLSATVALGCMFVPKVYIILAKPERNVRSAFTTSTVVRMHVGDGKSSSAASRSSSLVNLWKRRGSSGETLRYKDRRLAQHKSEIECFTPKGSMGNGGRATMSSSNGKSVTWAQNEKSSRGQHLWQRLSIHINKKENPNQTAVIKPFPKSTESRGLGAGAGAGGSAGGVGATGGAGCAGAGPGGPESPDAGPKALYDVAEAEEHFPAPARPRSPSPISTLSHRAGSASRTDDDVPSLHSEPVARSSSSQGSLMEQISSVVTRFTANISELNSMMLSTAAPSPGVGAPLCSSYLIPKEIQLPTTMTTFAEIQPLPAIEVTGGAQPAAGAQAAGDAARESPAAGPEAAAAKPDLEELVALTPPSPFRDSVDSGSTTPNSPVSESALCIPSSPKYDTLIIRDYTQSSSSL

[3] = system: Rattus norvegicus; assay: Antipsychotic activity in rat assessed as reversal of amphetamine-induced hyperlocomotion at 30 mg/kg, ip; format: functional, organism-based; set-up: dose 30 mg/kg
[4] = molecular target: T1, Metabotropic glutamate receptor 5; assay: Antagonist activity against mGlu5 receptor assessed as inhibition of calcium mobilization
Target sequence in this assay (P41594 whole entry): as above

Row | Activity [1] [%] | EC50 [2] [µM] | SMILES | Activity [3] | IC50 [4] [µM]
1 | 87 | 0.016 | O=C(NC1CCC1)c1ccc(C#Cc2cccc(F)c2)nc1 | – | –
2 | 53 | 0.25 | CN1CCc2cc(C#Cc3ccccc3)ccc2C1=O | – | –
3 | 72 | 0.29 | O=C1NCCc2nc(C#Cc3cccc(F)c3)ccc21 | – | –
4 | 40 | 0.054 | CC(C)CN1CCc2nc(C#Cc3cccc(F)c3)ccc2C1=O | – | –
5 | 91 | 0.27 | O=C1c2ccc(C#Cc3ccccc3)cc2CCN1CC1CCC1 | – | –
6 | – | – | O=C1NCCc2cc(C#Cc3ccccc3)ccc21 | Active | –
7 | 84 | 0.17 | O=C1NC(=O)c2cc(C#Cc3ccc(F)c(F)c3)ccc21 | – | –
8 | – | > 10 | COc1ccc(C#Cc2ccc3c(c2)CCNC3=O)cc1 | – | –
9 | 50 | 3.7 | O=C1NCCc2cc(C#Cc3ccccc3Cl)ccc21 | – | –
10 | 53 | 0.61 | Cc1ccccc1C#Cc1ccc2c(c1)CCNC2=O | – | –
11 | 81 | 0.26 | O=C1NCCc2cc(C#Cc3ccc(F)cc3)ccc21 | – | –
12 | 90 | 0.55 | O=C1c2ccc(C#Cc3ccccc3)cc2CCN1Cc1ccccc1 | – | –
13 | 80 | 0.15 | O=C1NCCc2cc(C#Cc3ccccc3F)ccc21 | – | –
14 | 58 | 3.4 | COc1cccc(C#Cc2ccc3c(c2)CCNC3=O)c1 | – | –
15 | – | – | O=C1c2ccc(C#Cc3cccc(F)c3)nc2CCN1CC1CC1 | – | 0.66
16 | 71 | 0.066 | O=C1NCc2cc(C#Cc3cccc(F)c3)ccc21 | – | –
17 | 97 | 0.16 | CCCN1CCc2cc(C#Cc3ccccc3)ccc2C1=O | Active | –
18 | 69 | – | O=C1NCc2cc(C#Cc3ccccc3)ccc21 | – | –
19 | – | > 10 | O=C1NCCc2cc(C#Cc3ccc(Cl)cc3)ccc21 | – | –
20 | 99 | 0.035 | O=C1NC(=O)c2cc(C#Cc3cccc(F)c3)ccc21 | – | –

Row | Activity [1] [%] | EC50 [2] [µM] | SMILES | Activity [3] | IC50 [4] [µM]
21 | 53 | 0.13 | O=C1c2ccc(C#Cc3cccc(F)c3)nc2CCN1CC1CCC1 | – | –
22 | 60 | 0.35 | O=C1NCc2cc(C#Cc3ccc(F)cc3)ccc21 | – | –
23 | 40 | 0.87 | O=C1c2ccc(C#Cc3ccccc3)cc2C(=O)N1CCc1ccccn1 | – | –
24 | 72 | 0.01 | O=C(c1ccc(C#Cc2ccccc2)cc1)N1CCC(O)CC1 | – | –
25 | 69 | 0.18 | O=C1c2ccc(C#Cc3ccccc3)cc2CCN1CC1CC1 | Active | –
26 | 84 | 3.6 | O=C1c2ccc(C#Cc3ccccc3)cc2CCN1CCN1CCOCC1 | – | –
27 | 59 | 0.85 | O=C1NCCc2cc(C#Cc3ccc(F)cc3F)ccc21 | – | –
28 | 44 | 5.7 | O=C1c2ccc(C#Cc3ccccc3)cc2C(=O)N1CCN1CCOCC1 | – | –
29 | 97 | 0.096 | CCCCN1CCc2cc(C#Cc3ccccc3)ccc2C1=O | – | –
30 | 88 | 0.16 | O=C1NC(=O)c2cc(C#Cc3ccc(F)cc3)ccc21 | – | –
31 | 93 | 0.012 | O=C1NC(=O)c2cc(C#Cc3ccccc3F)ccc21 | – | –
32 | 46 | 0.056 | CCCCN1CCc2nc(C#Cc3cccc(F)c3)ccc2C1=O | – | –
33 | 76 | 0.17 | Cc1cccc(C#Cc2ccc3c(c2)CCNC3=O)c1 | – | –
34 | 68 | 0.47 | O=C1NCCc2cc(C#Cc3cccc(Cl)c3)ccc21 | – | –
35 | 77 | 4 | O=C1c2ccc(C#Cc3ccccc3)cc2CCN1CCN1CCC1 | – | –
36 | 53 | 4.9 | Cc1cc(C#Cc2ccc3c(c2)CCNC3=O)ccc1F | – | –
37 | – | – | CN1CCc2nc(C#Cc3cccc(F)c3)ccc2C1=O | – | 0.17
38 | 76 | 0.9 | O=C1c2ccc(C#Cc3ccccc3)cc2C(=O)N1CCc1ccncc1 | – | –
39 | 67 | 0.2 | O=C1NCc2cc(C#Cc3ccccc3F)ccc21 | – | –
